# Measured values reported in the Kinase Knowledgebase extract (Sharma et al. 2016).
# Molecular target: EGFR (UniProt P00533)
# Details: her-14
# EGFR, sequence (P00533 whole entry, looked up): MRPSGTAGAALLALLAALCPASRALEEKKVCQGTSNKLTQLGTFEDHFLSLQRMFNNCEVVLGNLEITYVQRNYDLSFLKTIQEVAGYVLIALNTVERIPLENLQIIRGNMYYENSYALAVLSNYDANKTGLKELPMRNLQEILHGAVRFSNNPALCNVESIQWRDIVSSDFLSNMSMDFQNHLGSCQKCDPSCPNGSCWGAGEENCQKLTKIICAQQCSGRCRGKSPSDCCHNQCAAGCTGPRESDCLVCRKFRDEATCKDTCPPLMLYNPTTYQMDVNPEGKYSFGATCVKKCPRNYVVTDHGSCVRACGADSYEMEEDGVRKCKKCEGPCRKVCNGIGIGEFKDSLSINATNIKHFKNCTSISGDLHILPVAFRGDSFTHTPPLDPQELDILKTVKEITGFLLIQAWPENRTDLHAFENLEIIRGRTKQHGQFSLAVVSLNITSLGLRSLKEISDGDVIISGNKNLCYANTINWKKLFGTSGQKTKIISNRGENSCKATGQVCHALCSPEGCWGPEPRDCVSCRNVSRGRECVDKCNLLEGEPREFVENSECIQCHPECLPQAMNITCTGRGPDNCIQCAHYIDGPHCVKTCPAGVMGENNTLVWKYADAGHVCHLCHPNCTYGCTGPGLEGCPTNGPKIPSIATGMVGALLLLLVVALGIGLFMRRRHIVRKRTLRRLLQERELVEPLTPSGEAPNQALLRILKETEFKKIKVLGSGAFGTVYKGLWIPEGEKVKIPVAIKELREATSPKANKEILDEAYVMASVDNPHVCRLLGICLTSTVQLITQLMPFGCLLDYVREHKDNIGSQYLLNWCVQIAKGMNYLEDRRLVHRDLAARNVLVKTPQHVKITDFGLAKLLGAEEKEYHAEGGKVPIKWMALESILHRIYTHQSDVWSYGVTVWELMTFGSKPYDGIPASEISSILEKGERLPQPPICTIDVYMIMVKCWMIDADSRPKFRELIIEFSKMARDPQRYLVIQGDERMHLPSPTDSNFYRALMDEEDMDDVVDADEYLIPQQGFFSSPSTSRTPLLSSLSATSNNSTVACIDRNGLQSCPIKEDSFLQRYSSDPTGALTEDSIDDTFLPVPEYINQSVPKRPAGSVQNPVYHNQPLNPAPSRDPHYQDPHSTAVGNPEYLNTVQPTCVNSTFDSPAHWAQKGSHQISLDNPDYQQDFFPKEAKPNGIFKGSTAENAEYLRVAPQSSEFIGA
row,SMILES,IC50 [µM]
1,N#C/C(=C\c1ccc(O)c(O)c1)C(=O)NCCCCCCCCCCNC(=O)/C(C#N)=C/c1ccc(O)c(O)c1,25
2,N#C/C(=C\c1ccc(O)c(O)c1)C(=O)N1CCN(C(=O)/C(C#N)=C/c2ccc(O)c(O)c2)CC1,10
3,N#C/C(=C\c1ccc(O)c(O)c1)C(=O)NCCCCNC(=O)/C(C#N)=C/c1ccc(O)c(O)c1,5
4,N#C/C(=C\c1cc(O)c(O)c([N+](=O)[O-])c1)C(=O)NCCCNC(=O)/C(C#N)=C/c1cc(O)c(O)c([N+](=O)[O-])c1,35
5,N#C/C(=C\c1ccc(O)c(O)c1)C(=O)NCCCCCCNC(=O)/C(C#N)=C/c1ccc(O)c(O)c1,5
6,N#C/C(=C\c1cc(O)c(O)c(O)c1)C(=O)NCCCCNC(=O)/C(C#N)=C/c1cc(O)c(O)c(O)c1,5
7,COc1cc(/C=C(\C#N)C(=O)NCCCCNC(=O)/C(C#N)=C/c2cc(OC)c(O)c([N+](=O)[O-])c2)cc([N+](=O)[O-])c1O,> 80
8,N#C/C(=C\c1ccc(O)c(O)c1)C(=O)NCCN1CCN(C(=O)/C(C#N)=C/c2ccc(O)c(O)c2)CC1,6.2
9,N#C/C(=C\c1ccc(O)c(O)c1)C(=O)NC1CCCCC1NC(=O)/C(C#N)=C/c1ccc(O)c(O)c1 (centres undefined),4
10,N#C/C(=C\c1ccc(O)c(O)c1)C(=O)NCCCCCNC(=O)/C(C#N)=C/c1ccc(O)c(O)c1,9
11,N#C/C(=C\c1ccc(O)c(O)c1)C(=O)NC1CCC(CC2CCC(NC(=O)/C(C#N)=C/c3ccc(O)c(O)c3)CC2)CC1 (centres undefined),20.3
12,N#C/C(=C\c1cc(O)c(O)c(Br)c1)C(=O)NCCCNC(=O)/C(C#N)=C/c1cc(O)c(O)c(Br)c1,7.3
13,N#C/C(=C\c1ccc(O)c(O)c1)C(=O)NCCCN1CCN(CCCNC(=O)/C(C#N)=C/c2ccc(O)c(O)c2)CC1,7
14,N#C/C(=C\c1ccc(O)c(O)c1)C(=O)NCN1CCN(C(=O)/C(C#N)=C/c2ccc(O)c(O)c2)CC1,5.8
15,N#C/C(=C\c1ccc(O)c(O)c1)S(=O)(=O)/C(C#N)=C/c1ccc(O)c(O)c1,2
16,N#C/C(=C\c1ccc(O)c(O)c1)C(=O)NCc1cccc(CNC(=O)/C(C#N)=C/c2ccc(O)c(O)c2)c1,6
17,N#C/C(=C\c1ccc(O)c(O)c1)C(=O)NCC1CCCC(CNC(=O)/C(C#N)=C/c2ccc(O)c(O)c2)C1 (centres undefined),12.5
18,COc1cc(/C=C(\C#N)C(=O)NCCCCNC(=O)/C(C#N)=C/c2cc(Br)c(O)c(OC)c2)cc(Br)c1O,3
19,N#C/C(=C\c1ccc(O)c(O)c1)C(=O)NCCNC(=O)/C(C#N)=C/c1ccc(O)c(O)c1,10
